Laboratory results taken from paper PMC10598265, “Effects of the novel selective κ-opioid receptor agonist NP-5497-KA on morphine-induced reward-related behaviors” (Scientific Reports, 2023).

Experiments:
MOP (μ-opioid receptor) = biological target: T1, MOP (μ-opioid receptor) (Homo sapiens, UniProt P35372); assay: TR-FRET cAMP assay (LANCE Ultra), inhibition of forskolin-stimulated cAMP; assay type: cell-based
T1 construct: gene OPRM1; full-length receptor stably expressed in CHO-K1 cells (ChanTest)
T1 sequence (P35372 whole entry): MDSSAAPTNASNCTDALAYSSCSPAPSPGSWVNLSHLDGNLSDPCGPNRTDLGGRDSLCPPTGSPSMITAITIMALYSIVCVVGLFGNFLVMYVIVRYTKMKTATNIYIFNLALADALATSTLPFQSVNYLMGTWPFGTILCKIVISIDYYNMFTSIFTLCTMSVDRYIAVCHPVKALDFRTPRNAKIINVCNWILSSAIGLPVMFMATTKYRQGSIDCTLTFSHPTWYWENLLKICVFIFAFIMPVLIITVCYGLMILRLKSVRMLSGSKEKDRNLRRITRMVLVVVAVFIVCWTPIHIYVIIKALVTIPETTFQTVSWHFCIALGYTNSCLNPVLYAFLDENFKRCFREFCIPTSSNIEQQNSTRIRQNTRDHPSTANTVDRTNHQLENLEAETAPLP
Source text: TR-FRET cAMP assay (LANCE Ultra), inhibition of forskolin-stimulated cAMP on MOP (μ-opioid receptor)

DOP (δ-opioid receptor) = biological target: T2, DOP (δ-opioid receptor) (Homo sapiens, UniProt P41143); assay: as above; assay type: cell-based
T2 construct: gene OPRD1; full-length receptor stably expressed in CHO-K1 cells (ChanTest)
T2 sequence (P41143 whole entry): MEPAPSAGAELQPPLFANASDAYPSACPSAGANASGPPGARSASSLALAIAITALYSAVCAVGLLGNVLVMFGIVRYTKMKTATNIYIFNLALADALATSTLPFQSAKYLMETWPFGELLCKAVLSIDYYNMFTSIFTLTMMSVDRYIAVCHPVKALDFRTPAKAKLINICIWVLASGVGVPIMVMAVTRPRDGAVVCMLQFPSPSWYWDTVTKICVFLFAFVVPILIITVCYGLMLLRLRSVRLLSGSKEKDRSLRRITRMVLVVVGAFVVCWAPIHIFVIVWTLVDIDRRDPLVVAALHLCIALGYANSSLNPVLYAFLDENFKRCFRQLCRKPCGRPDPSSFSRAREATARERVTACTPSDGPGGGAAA
Source text: TR-FRET cAMP assay (LANCE Ultra), inhibition of forskolin-stimulated cAMP on DOP (δ-opioid receptor)

## CN(C(=O)/C=C/c1ccoc1)[C@@H]1CC[C@@]2(O)[C@H]3Cc4ccc(O)c5c4[C@@]2(CCN3CC2CC2)[C@H]1O5 [Nalfurafine]
MOP (μ-opioid receptor)
  EC50: 7.8 nM
DOP (δ-opioid receptor)
  EC50: 132 nM
